{"source": "paper PMC9696085", "about": "“Fully Symmetric Cyclodextrin Polycarboxylates: How to Determine Reliable Protonation Constants from NMR Titration Data” (International Journal of Molecular Sciences, 2022)", "experiment": "1H NMR-pH titration, protonation constants", "assay_type": "physicochemical", "details": "for log k: site-binding model without any pair-interactivity parameters (unsatisfactory fit); for pKa: H2O:D2O = 9:1 solvent mixture", "description": "The pH meter readings were recorded using a Metrohm pH meter, equipped with a Metrohm 6.0234.110 combined glass electrode. A four-point calibration using pH 2.00, pH 4.00, pH 7.00 and pH 11.00 standard buffer solutions were performed directly before pH adjustments. The pH measurements were performed in 25 mL vessels with proper stirring before transferring 600 μL sample solutions into the NMR tubes. Solutions were prepared in the pH range of 1.50–8.70 with 0.30 increments using 0.9 M, 0.5 M and 0.1 M sodium hydroxide and hydrochloric acid solutions in H2O:D2O = 9:1.\nFor structural characterizations of CD derivatives in D2O, a 600 MHz Varian DDR NMR spectrometer equipped with a 5 mm inverse-detection gradient probe or a 400 MHz Varian Mercury Plus spectrometer equipped with a 5mm Varian 400 Automation Triple Resonance Broadband Pulsed Field Gradient probe was used. For NMR-pH titrations, the same instruments were used. The pH-dependent series of ^1H NMR spectra were recorded in a solvent mixture of H2O:D2O = 9:1 by volume, where the constant ionic strength and the buffer capacity were adjusted using 0.05 M sodium chloride and 0.05 M acetic acid-d4. An appropriate amount of CD was weighed to obtain a 1 mM solution and finally one drop of methanol was added as a chemical shift reference (3.310 ppm). The water resonance was diminished by the dpfgse pulse sequence or presaturation. All the spectra were processed using the MestReNova v9.0.1-13254 (Mestralab Research, S.L., Santiago de Compostela, Spain) software.\nThe standard macroscopic evaluation of NMR-pH titration curves (Equation (3) in Section 2.2) was performed with the following software tools: Microcal Origin Pro 8 (OriginLab Corp., Northampton, MA, USA), HypNMR2018 [38], OPIUM [39] and home-written R scripts (R version 4.1.2, The R Foundation, Vienna, Austria) using the nls module. The equidistant macroscopic (Equation (8)) and Q-fitting (Equations (4) and (11)) models were fitted both by Origin and our R-scripts to verify their equivalent performance regarding statistical description of the parameter estimates. The microscopic cluster expansion model in Section 2.5 requires summation of >100 variables which is unfeasible in the form of an explicit model function required by commercial data-fitting software like Origin. The enumeration of microspecies was therefore accomplished in a custom-written R script. To assess the robustness of our data-fitting model as well as the error propagation of the optimized log k and pε parameters to the derived log K macroconstants, Monte Carlo simulations on >1000 replicates were performed in R.", "key": {"[1]": {"details": "ED macro or Q-fitting evaluation, ? = physically unrealistic, SD in parentheses"}, "[2]": {"details": "ED macro or Q-fitting evaluation, H2O:D2O = 9:1, 0.05 M NaCl, SD in parentheses"}, "[3]": {"details": "converted from optimized microscopic basicity parameters (site-binding model)"}, "[4]": {"details": "from ED macro or Q-fitting macroconstants by Eq. 18"}, "[5]": {"details": "from ED macro or Q-fitting macroconstants by Eq. 18, ? = physically unrealistic"}, "[6]": {"details": "site-binding (SB) microscopic evaluation"}, "[7]": {"details": "site-binding (SB) microscopic evaluation, converted from log kA and pε, errors by Monte Carlo"}, "[8]": {"details": "site-binding model with two interactivity parameters, standard deviation 138, overparametrized"}}, "note": "“And” between values parts separate entries of the source, which are not always exact repeats. Equal entries are not always repeated. Where two headings read alike, the source gives them in different places.", "data": [{"smiles": "O=C(O)CCSC[C@H]1O[C@@H]2O[C@H]3[C@H](O)[C@@H](O)[C@@H](O[C@H]4[C@H](O)[C@@H](O)[C@@H](O[C@H]5[C@H](O)[C@@H](O)[C@@H](O[C@H]6[C@H](O)[C@@H](O)[C@@H](O[C@H]7[C@H](O)[C@@H](O)[C@@H](O[C@H]8[C@H](O)[C@@H](O)[C@@H](O[C@H]9[C@H](O)[C@@H](O)[C@@H](O[C@H]1[C@H](O)[C@H]2O)O[C@@H]9CSCCC(=O)O)O[C@@H]8CSCCC(=O)O)O[C@@H]7CSCCC(=O)O)O[C@@H]6CSCCC(=O)O)O[C@@H]5CSCCC(=O)O)O[C@@H]4CSCCC(=O)O)O[C@@H]3CSCCC(=O)O", "note": "[Suγ-CD, sugammadex, reference compound]", "values": [{"measurement": "log K4", "setting": "[1]", "value": "5.28 (0.22)"}, {"measurement": "log K5", "setting": "[1]", "value": "5.14 (0.22)"}, {"measurement": "log K6", "setting": "[1]", "value": "4.59 (0.17)"}, {"measurement": "log K1", "setting": "[2]", "value": "6.68 (0.08)"}, {"measurement": "log K2", "setting": "[2]", "value": "6.17 (0.12)"}, {"measurement": "log K3", "setting": "[2]", "value": "5.88 (0.16)"}, {"measurement": "log K8", "setting": "ED macro or Q-fitting evaluation, SD in parentheses", "value": "3.78 (0.07)"}, {"measurement": "macroscopic pKa, 1st of the set", "setting": "[3]", "value": 3.83}, {"measurement": "macroscopic pKa, 2nd of the set", "setting": "[3]", "value": 4.28}, {"measurement": "macroscopic pKa, 3rd of the set", "setting": "[3]", "value": 4.65}, {"measurement": "macroscopic pKa, 4th of the set", "setting": "[3]", "value": 5.03}, {"measurement": "macroscopic pKa, 5th of the set", "setting": "[3]", "value": 5.43}, {"measurement": "macroscopic pKa, 6th of the set", "setting": "[3]", "value": 5.81}, {"measurement": "macroscopic pKa, 7th of the set", "setting": "[3]", "value": 6.18}, {"measurement": "macroscopic pKa, 8th of the set", "setting": "[3]", "value": 6.64}, {"measurement": "log k¯1 (averaged microconstant)", "setting": "[4]", "value": "5.77 (0.08)"}, {"measurement": "log k¯2 (averaged microconstant)", "setting": "[4]", "value": "5.63 (0.12)"}, {"measurement": "log k¯3 (averaged microconstant)", "setting": "[4]", "value": "5.58 (0.16)"}, {"measurement": "log k¯8 (averaged microconstant)", "setting": "[4]", "value": "4.69 (0.07)"}, {"measurement": "log k¯4 (averaged microconstant)", "setting": "[5]", "value": "5.18 (0.22)"}, {"measurement": "log k¯5 (averaged microconstant)", "setting": "[5]", "value": "5.24 (0.22)"}, {"measurement": "log k¯6 (averaged microconstant)", "setting": "[5]", "value": "4.89 (0.17)"}, {"measurement": "log k¯1 (averaged microconstant)", "setting": "[6]", "value": "5.73 (0.02)"}, {"measurement": "log k¯2 (averaged microconstant)", "setting": "[6]", "value": "5.64 (0.02)"}, {"measurement": "log k¯3 (averaged microconstant)", "setting": "[6]", "value": "5.51 (0.02)"}, {"measurement": "log k¯4 (averaged microconstant)", "setting": "[6]", "value": "5.33 (0.01)"}, {"measurement": "log k¯5 (averaged microconstant)", "setting": "[6]", "value": "5.13 (0.01)"}, {"measurement": "log k¯6 (averaged microconstant)", "setting": "[6]", "value": "4.95 (0.02)"}, {"measurement": "log k¯7 (averaged microconstant)", "setting": "[6]", "value": "4.82 (0.02)"}, {"measurement": "log k¯8 (averaged microconstant)", "setting": "[6]", "value": "4.73 (0.02)"}, {"measurement": "log K1", "setting": "[7]", "value": "6.64 (0.02)"}, {"measurement": "log K2", "setting": "[7]", "value": "6.18 (0.02)"}, {"measurement": "log K3", "setting": "[7]", "value": "5.81 (0.02)"}, {"measurement": "log K4", "setting": "[7]", "value": "5.43 (0.01)"}, {"measurement": "log K5", "setting": "[7]", "value": "5.03 (0.01)"}, {"measurement": "log K6", "setting": "[7]", "value": "4.65 (0.02)"}, {"measurement": "log K7", "setting": "[7]", "value": "4.28 (0.02)"}, {"measurement": "log K8", "setting": "[7]", "value": "3.83 (0.02)"}, {"measurement": "pε12 = averaged interactivity parameter pε¯", "setting": "site-binding model with a single interactivity parameter", "value": 0.503}, {"measurement": "log kA (carboxylate core microconstant)", "setting": "site-binding model with a single interactivity parameter pε12 (pε¯)", "value": "5.735 and 5.73"}, {"measurement": "log k", "value": 5.22}]}, {"smiles": "O=C(O)CCSC[C@H]1O[C@@H]2O[C@H]3[C@H](O)[C@@H](O)[C@@H](O[C@H]4[C@H](O)[C@@H](O)[C@@H](O[C@H]5[C@H](O)[C@@H](O)[C@@H](O[C@H]6[C@H](O)[C@@H](O)[C@@H](O[C@H]7[C@H](O)[C@@H](O)[C@@H](O[C@H]8[C@H](O)[C@@H](O)[C@@H](O[C@H]9[C@H](O)[C@@H](O)[C@@H](O[C@H]1[C@H](O)[C@H]2O)O[C@@H]9CO)O[C@@H]8CO)O[C@@H]7CO)O[C@@H]6CO)O[C@@H]5CO)O[C@@H]4CO)O[C@@H]3CO", "note": "[mono-Suγ-CD, mono-sugammadex]", "values": [{"measurement": "log K", "setting": "standard macroscopic evaluation, Equation (3), n = 1", "value": "4.35 (0.01)"}]}, {"smiles": "O=C(O)CCSC[C@H]1O[C@@H]2O[C@H]3[C@H](O)[C@@H](O)[C@@H](O[C@H]4[C@H](O)[C@@H](O)[C@@H](O[C@H]5[C@H](O)[C@@H](O)[C@@H](O[C@H]6[C@H](O)[C@@H](O)[C@@H](O[C@H]7[C@H](O)[C@@H](O)[C@@H](O[C@H]1[C@H](O)[C@H]2O)O[C@@H]7CSCCC(=O)O)O[C@@H]6CSCCC(=O)O)O[C@@H]5CSCCC(=O)O)O[C@@H]4CSCCC(=O)O)O[C@@H]3CSCCC(=O)O", "note": "[Suα-CD, sualphadex]", "values": [{"measurement": "log K4", "setting": "[1]", "value": "4.70 (0.14)"}, {"measurement": "log K6", "setting": "[1]", "value": "3.77 (0.07)"}, {"measurement": "log K1", "setting": "[2]", "value": "6.43 (0.07)"}, {"measurement": "log K2", "setting": "[2]", "value": "5.79 (0.09)"}, {"measurement": "log K3", "setting": "[2]", "value": "5.26 (0.11)"}, {"measurement": "pKa", "setting": "converted from optimized microscopic basicity parameters (site-binding model), read-out: macroscopic pKa, 1st of the set", "value": 3.84}, {"measurement": "pKa", "setting": "converted from optimized microscopic basicity parameters (site-binding model), read-out: macroscopic pKa, 2nd of the set", "value": 4.35}, {"measurement": "pKa", "setting": "converted from optimized microscopic basicity parameters (site-binding model), read-out: macroscopic pKa, 3rd of the set", "value": 4.81}, {"measurement": "pKa", "setting": "converted from optimized microscopic basicity parameters (site-binding model), read-out: macroscopic pKa, 4th of the set", "value": 5.31}, {"measurement": "pKa", "setting": "converted from optimized microscopic basicity parameters (site-binding model), read-out: macroscopic pKa, 5th of the set", "value": 5.78}, {"measurement": "pKa", "setting": "converted from optimized microscopic basicity parameters (site-binding model), read-out: macroscopic pKa, 6th of the set", "value": 6.28}, {"measurement": "log k¯1 (averaged microconstant)", "setting": "[4]", "value": "5.65 (0.07)"}, {"measurement": "log k¯2 (averaged microconstant)", "setting": "[4]", "value": "5.39 (0.09)"}, {"measurement": "log k¯3 (averaged microconstant)", "setting": "[4]", "value": "5.13 (0.12)"}, {"measurement": "log k¯6 (averaged microconstant)", "setting": "[5]", "value": "4.55 (0.07)"}, {"measurement": "log k¯1 (averaged microconstant)", "setting": "[6]", "value": "5.51 (0.02)"}, {"measurement": "log k¯2 (averaged microconstant)", "setting": "[6]", "value": "5.38 (0.02)"}, {"measurement": "log k¯3 (averaged microconstant)", "setting": "[6]", "value": "5.18 (0.02)"}, {"measurement": "log k¯4 (averaged microconstant)", "setting": "[6]", "value": "4.94 (0.02)"}, {"measurement": "log k¯5 (averaged microconstant)", "setting": "[6]", "value": "4.75 (0.02)"}, {"measurement": "log k¯6 (averaged microconstant)", "setting": "[6]", "value": "4.62 (0.02)"}, {"measurement": "log K1", "setting": "[7]", "value": "6.28 (0.02)"}, {"measurement": "log K2", "setting": "[7]", "value": "5.78 (0.02)"}, {"measurement": "log K3", "setting": "[7]", "value": "5.31 (0.02)"}, {"measurement": "log K4", "setting": "[7]", "value": "4.81 (0.02)"}, {"measurement": "log K5", "setting": "[7]", "value": "4.35 (0.02)"}, {"measurement": "log K6", "setting": "[7]", "value": "3.84 (0.02)"}, {"measurement": "log kA", "setting": "site-binding model with two interactivity parameters (pε12 and pε13), overparametrized", "value": "5.63 (7)"}, {"measurement": "pε12", "setting": "[8]", "value": 0.28}, {"measurement": "pε13", "setting": "[8]", "value": 0.28}, {"measurement": "log k", "value": 5.049}]}]}
